Measured values as given in the supplement of paper PMC10307832.

Columns and labels:
Assay in all cases: relative viability (nuclei count vs DMSO), 5 days (fraction); higher = more cells survive
Erlotinib + Olaparib = compound: C#Cc1cccc(Nc2ncnc3cc(OCCOC)c(OCCOC)cc23)c1 [Erlotinib] + O=C(c1cc(Cc2n[nH]c(=O)c3ccccc23)ccc1F)N1CCN(C(=O)C2CC2)CC1 [Olaparib] (partner 8 µM)
Summary of the method: (§1)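 Nuclei were stained with Hoechst during a one-step fixation (final 0.05% Triton X-100, 1% formaldehyde, 1 ug/ml Hoechst) carried out 5 days after dosing, then counted on 4× images. The cells, lung cancer lines in 1536-well plates, had been dosed by pin tool the day after seeding with one drug alone or a fixed anchor-drug dose plus five library-drug doses (not always all listed) in √10 steps. Relative viability is the nuclei count in treated wells divided by that in vehicle wells, and each value is the median of duplicate plates.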

AT9283 + Lapatinib = compound: O=C(Nc1c[nH]nc1-c1nc2ccc(CN3CCOCC3)cc2[nH]1)NC1CC1 [AT9283] + CS(=O)(=O)CCNCc1ccc(-c2ccc3ncnc(Nc4ccc(OCc5cccc(F)c5)c(Cl)c4)c3c2)o1 [Lapatinib] (partner 2 µM)
Summary of the method: as §1

AT9283 + Decitabine = compound: O=C(Nc1c[nH]nc1-c1nc2ccc(CN3CCOCC3)cc2[nH]1)NC1CC1 [AT9283] + Nc1ncn([C@H]2C[C@H](O)[C@@H](CO)O2)c(=O)n1 [Decitabine] (partner 2 µM)
Summary of the method: as §1

Erlotinib + Trametinib = compound: C#Cc1cccc(Nc2ncnc3cc(OCCOC)c(OCCOC)cc23)c1 [Erlotinib] + CC(=O)Nc1cccc(-n2c(=O)n(C3CC3)c(=O)c3c(Nc4ccc(I)cc4F)n(C)c(=O)c(C)c32)c1 [Trametinib] (partner 0.02 µM)
Summary of the method: as §1

Erlotinib + AZD7762 = compound: C#Cc1cccc(Nc2ncnc3cc(OCCOC)c(OCCOC)cc23)c1 [Erlotinib] + NC(=O)Nc1cc(-c2cccc(F)c2)sc1C(=O)N[C@H]1CCCNC1 [AZD7762] (partner 0.2 µM)
Summary of the method: as §1

Cell Line: NCI-H2126
- relative viability (Erlotinib + Olaparib; first compound 0.02 µM): 0.872
- relative viability (Erlotinib + Olaparib; first compound 0.2 µM): 0.851
- relative viability (Erlotinib + Olaparib; first compound 0.6325 µM): 0.729
- relative viability (Erlotinib + Olaparib; first compound 2 µM): 0.718
- relative viability (AT9283 + Lapatinib; first compound 0.003 µM): 0.748
- relative viability (AT9283 + Lapatinib; first compound 0.03 µM): 0.737
- relative viability (AT9283 + Lapatinib; first compound 0.09487 µM): 0.66
- relative viability (AT9283 + Lapatinib; first compound 0.3 µM): 0.296
- relative viability (AT9283 + Decitabine; first compound 0.003 µM): 0.589
- relative viability (AT9283 + Decitabine; first compound 0.03 µM): 0.625
- relative viability (AT9283 + Decitabine; first compound 0.09487 µM): 0.439
- relative viability (AT9283 + Decitabine; first compound 0.3 µM): 0.303
- relative viability (Erlotinib + Trametinib; first compound 0.02 µM): 0.569
- relative viability (Erlotinib + Trametinib; first compound 0.2 µM): 0.467
- relative viability (Erlotinib + Trametinib; first compound 0.6325 µM): 0.441
- relative viability (Erlotinib + Trametinib; first compound 2 µM): 0.496
- relative viability (Erlotinib + AZD7762; first compound 0.02 µM): 1.03
- relative viability (Erlotinib + AZD7762; first compound 0.2 µM): 1.01
- relative viability (Erlotinib + AZD7762; first compound 0.6325 µM): 0.892
- relative viability (Erlotinib + AZD7762; first compound 2 µM): 0.688

Cell Line: NCI-H2170
- relative viability (Erlotinib + Olaparib; first compound 0.02 µM): 0.651
- relative viability (Erlotinib + Olaparib; first compound 0.2 µM): 0.602
- relative viability (Erlotinib + Olaparib; first compound 0.6325 µM): 0.476
- relative viability (Erlotinib + Olaparib; first compound 2 µM): 0.309
- relative viability (AT9283 + Lapatinib; first compound 0.003 µM): 0.242
- relative viability (AT9283 + Lapatinib; first compound 0.03 µM): 0.261
- relative viability (AT9283 + Lapatinib; first compound 0.09487 µM): 0.2
- relative viability (AT9283 + Lapatinib; first compound 0.3 µM): 0.2
- relative viability (AT9283 + Decitabine; first compound 0.003 µM): 0.466
- relative viability (AT9283 + Decitabine; first compound 0.03 µM): 0.366
- relative viability (AT9283 + Decitabine; first compound 0.09487 µM): 0.228
- relative viability (AT9283 + Decitabine; first compound 0.3 µM): 0.156
- relative viability (Erlotinib + Trametinib; first compound 0.02 µM): 0.884
- relative viability (Erlotinib + Trametinib; first compound 0.2 µM): 0.924
- relative viability (Erlotinib + Trametinib; first compound 0.6325 µM): 0.977
- relative viability (Erlotinib + Trametinib; first compound 2 µM): 0.773
- relative viability (Erlotinib + AZD7762; first compound 0.02 µM): 0.862
- relative viability (Erlotinib + AZD7762; first compound 0.2 µM): 0.737
- relative viability (Erlotinib + AZD7762; first compound 0.6325 µM): 0.54
- relative viability (Erlotinib + AZD7762; first compound 2 µM): 0.35

Cell Line: NCI-H2347
- relative viability (Erlotinib + Olaparib; first compound 0.02 µM): 0.601
- relative viability (Erlotinib + Olaparib; first compound 0.2 µM): 0.587
- relative viability (Erlotinib + Olaparib; first compound 0.6325 µM): 0.526
- relative viability (Erlotinib + Olaparib; first compound 2 µM): 0.562
- relative viability (AT9283 + Lapatinib; first compound 0.003 µM): 0.894
- relative viability (AT9283 + Lapatinib; first compound 0.03 µM): 0.866
- relative viability (AT9283 + Lapatinib; first compound 0.09487 µM): 0.571
- relative viability (AT9283 + Lapatinib; first compound 0.3 µM): 0.501
- relative viability (AT9283 + Decitabine; first compound 0.003 µM): 0.624
- relative viability (AT9283 + Decitabine; first compound 0.03 µM): 0.61
- relative viability (AT9283 + Decitabine; first compound 0.09487 µM): 0.471
- relative viability (AT9283 + Decitabine; first compound 0.3 µM): 0.372
- relative viability (Erlotinib + Trametinib; first compound 0.02 µM): 0.268
- relative viability (Erlotinib + Trametinib; first compound 0.2 µM): 0.482
- relative viability (Erlotinib + Trametinib; first compound 0.6325 µM): 0.275
- relative viability (Erlotinib + Trametinib; first compound 2 µM): 0.285
- relative viability (Erlotinib + AZD7762; first compound 0.02 µM): 0.689
- relative viability (Erlotinib + AZD7762; first compound 0.2 µM): 0.856
- relative viability (Erlotinib + AZD7762; first compound 0.6325 µM): 0.783
- relative viability (Erlotinib + AZD7762; first compound 2 µM): 0.655

Cell Line: NCI-H2405
- relative viability (Erlotinib + Olaparib; first compound 0.02 µM): 0.965
- relative viability (Erlotinib + Olaparib; first compound 0.2 µM): 0.849
- relative viability (Erlotinib + Olaparib; first compound 0.6325 µM): 0.888
- relative viability (Erlotinib + Olaparib; first compound 2 µM): 0.81
- relative viability (AT9283 + Lapatinib; first compound 0.003 µM): 1.15
- relative viability (AT9283 + Lapatinib; first compound 0.03 µM): 0.789
- relative viability (AT9283 + Lapatinib; first compound 0.09487 µM): 0.295
- relative viability (AT9283 + Lapatinib; first compound 0.3 µM): 0.198
- relative viability (AT9283 + Decitabine; first compound 0.003 µM): 0.732
- relative viability (AT9283 + Decitabine; first compound 0.03 µM): 0.725
- relative viability (AT9283 + Decitabine; first compound 0.09487 µM): 0.381
- relative viability (AT9283 + Decitabine; first compound 0.3 µM): 0.24
- relative viability (Erlotinib + Trametinib; first compound 0.02 µM): 0.543
- relative viability (Erlotinib + Trametinib; first compound 0.2 µM): 0.574
- relative viability (Erlotinib + Trametinib; first compound 0.6325 µM): 0.613
- relative viability (Erlotinib + Trametinib; first compound 2 µM): 0.55
- relative viability (Erlotinib + AZD7762; first compound 0.02 µM): 0.749
- relative viability (Erlotinib + AZD7762; first compound 0.2 µM): 0.669
- relative viability (Erlotinib + AZD7762; first compound 0.6325 µM): 0.774
- relative viability (Erlotinib + AZD7762; first compound 2 µM): 0.652
